Test results: patent US20250360107A1, “USE OF MAZINDOL TO TREAT NERVOUS SYSTEM DISORDERS” (AXSOME THERAPEUTICS, INC., priority 2022, published 2025)
Several values for one entry are separate records, joined by “and”; a condition that tells them apart may be missing. Equal values may be shown once.

Experiments:
[1] = system: narcolepsy with cataplexy; assay: Hamilton Depression Rating Scale (HAM-D) score in a patient with narcolepsy with cataplexy; assay type: in vivo, human; details: single patient; 5 mg at 8 am and 5 mg at 1 pm each day; after three weeks of treatment
Description: (§1) A person is diagnosed as suffering from narcolepsy with cataplexy. They are given mazindol and instructed to take 5 mg of mazindol at 8 am and 5 mg of mazindol at 1 pm […] After three weeks of treatment, the HAM-D score has decreased by 10-30%.
as §1, with “pm each day for three weeks. The patient is evaluated prior to treatment, and weekly to determine the MWT score, the number of cataplexy attacks, the PGI-C score, the HAM-D” for “pm”, “30-60%.” for “10-30%.”
as §1, with “pm each day for three weeks. The patient is evaluated prior to treatment, and weekly to determine the MWT score, the number of cataplexy attacks, the PGI-C score, the HAM-D” for “pm”, “60-100%.” for “10-30%.”

[2] = system: narcolepsy with cataplexy; assay: Maintenance of Wakefulness Test (MWT) score in a patient with narcolepsy with cataplexy; assay type: in vivo, human; details: single patient, 5 mg at 8 am and 5 mg at 1 pm each day
Description: as §1, with “one week” for “three weeks”, “MWT” for “HAM-D”, “increased” for “decreased”
(§2) A person is diagnosed as suffering from narcolepsy with cataplexy. They are given mazindol and instructed to take 5 mg of mazindol at 8 am and 5 mg of mazindol at 1 pm each day for three weeks. The patient is evaluated prior to treatment, and weekly to determine the MWT score, the number of cataplexy attacks, the PGI-C score, the HAM-D score, the ESS score, the NSAQ score, and the ability to concentrate on the NSAQ. After one week of treatment, the MWT score has increased by 30-60%.
(§3) A person is diagnosed as suffering from narcolepsy with cataplexy. […] The patient is evaluated prior to treatment, and weekly to determine the MWT score, the number of cataplexy attacks, the PGI-C score, the HAM-D score, the ESS score, the NSAQ score, and the ability to concentrate on the NSAQ. […]
as §3

[3] = human patients; without controlled release coating; cited from earlier work
[4] = system: narcolepsy with cataplexy; assay: Number of cataplexy attacks in a patient with narcolepsy with cataplexy; assay type: in vivo, human; details: single patient, 5 mg at 8 am and 5 mg at 1 pm each day
Description: as §2, with “number of cataplexy attacks have decreased” for “MWT score has increased”, “10-30%.” for “30-60%.”
as §2, with “number of cataplexy attacks have decreased” for “MWT score has increased”
A person is diagnosed as suffering from narcolepsy with cataplexy. […]
as §3

[5] = system: narcolepsy with cataplexy; assay: Epworth Sleepiness Scale (ESS) score in a patient with narcolepsy with cataplexy; assay type: in vivo, human; details: single patient, 5 mg at 8 am and 5 mg at 1 pm each day
Description: as §2, with “treatment, the ESS score has” for “treatment, the MWT score has”, “score has decreased by 10-30%.” for “score has increased by 30-60%.”, “decreased by 10-30%.” for “increased by 30-60%.”
A person is diagnosed as suffering from narcolepsy with cataplexy. They are given mazindol and instructed to take 5 mg of mazindol at 8 am and 5 mg of mazindol at 1 pm each day for three weeks. The patient is evaluated prior to treatment, and weekly to determine the MWT score, the number of cataplexy attacks, the PGI-C score, the HAM-D score, the ESS score, the NSAQ score, and the ability to concentrate on the NSAQ. After one week of treatment, the ESS score has decreased by 30-60%.
as §2, with “After one week of treatment, the MWT score has increased by 30-60%.” left out

OC1(c2ccc(Cl)cc2)c2ccccc2C2=NCCN21 (centres unmarked) [mazindol]
decrease in HAM-D score [1]: 10-30% and 30-60% and 60-100%
increase in MWT score ([2]; after one week of treatment): 10-30% and 30-60% and 60-100%
increase in MWT score ([2]; after three weeks of treatment): 10-30% and 30-60% and 60-100%
time to reach a maximum plasma concentration [3]: 2 to 4 h
decrease in the number of cataplexy attacks ([4]; after one week of treatment): 10-30% and 30-60% and 60-100%
decrease in the number of cataplexy attacks ([4]; after three weeks of treatment): 10-30% and 30-60% and 60-100%
decrease in ESS score ([5]; after one week of treatment): 10-30% and 30-60% and 60-100%
decrease in ESS score ([5]; after three weeks of treatment): 10-30% and 30-60% and 60-100%
